Assay results from patent publication US20260176289A1, “SMALL MOLECULE INHIBITORS OF KRAS PROTEINS” (Merck Sharp & Dohme LLC, priority 2022, published 2026).

Experiments:
Assay type in all cases: biochemical
[1] = target: T1, KRAS G12V (amino acids 1-169) (Homo sapiens, UniProt P01116, G12V); assay: SOS-catalyzed nucleotide exchange assay (Procedure B, BODIPY FL GDP displacement), KRAS G12V; details: read-out: KRAS G12V GNE IC50
T1 construct: made in house; host or cells: E. coli
Protocol: (§1) Procedure for SOS-Catalyzed Nucleotide Exchange Assay for KRAS-G12C/D/V/WT (Procedure B)
(§2) Recombinant KRAS G12C (amino acids 1-169, SEQ ID NO:9), KRAS G12D (amino acids 1-169, SEQ ID NO: 10), KRAS G12V (amino acids 1-169, SEQ ID NO: 11), KRAS WT (amino acids 1-169, SEQ ID NO:12) and SOS1 (amino acids 564-1049, SEQ ID NO: 13) proteins were expressed in E. coli and purified by affinity chromatography. To prepare each BODIPY™ FL GDP-bound KRAS protein, 50 μM KRAS proteins were incubated with 0.5 mM BODIPY™ FL GDP (Invitrogen, G22360) in a loading buffer (20 mM Tris-HCl pH 7.5, 50 mM NaCl, 1 mM DTT and 2.5 mM EDTA) for 1 hour on ice. After the incubation, MgCl2 was added to a final concentration of 10 mM, followed by an incubation at room temperature for 30 minutes. The mixtures were allowed to pass through a NAP-5 column to remove free nucleotides and purified BODIPY™ FL GDP-bound KRAS G12C, G12D, G12V and WT proteins were used for compound evaluation.
(§3) The inhibitory activity of compounds on recombinant KRAS is measured by the displacement of the bound BODIPY™ GDP. Specifically, 2.5 nM of each BODIPY™ FL GDP-bound KRAS complex was incubated with various concentrations of compound in a reaction buffer (20 mM Tris-HCl pH 7.5, 100 mM NaCl, 1 mM MgCl2, 2 mM DTT, 0.1% Tween 20) at 25° C. for 1 hour. After the incubation, recombinant SOS1 and GMPPNP (Jena Bioscience GmbH, NU-401) were added and incubated at room temperature for 30 minutes to proceed SOS1-dependent GDP-GTP exchange reaction on KRAS. Displacement of BODIPY™ FL GDP by Guanosine-5′-[(β,γ)-imido]triphosphate, Tetralithium salt (GMPPNP) was measured by calculating the ratio of fluorescence intensities of BODIPY™ FL before and after the exchange reaction. Percent Inhibition was calculated by setting the fluorescence ratio from the reaction without test compound (DMSO control) and the fluorescence ratio from the reaction without SOS1 and GMPPNP as 0% and 100% inhibition, respectively. Dose response curves were analyzed using a 4-parameter logistic model to calculate IC50 values.

[2] = target: T2, KRAS WT (amino acids 1-169) (Homo sapiens, UniProt P01116); assay: SOS-catalyzed nucleotide exchange assay (Procedure B, BODIPY FL GDP displacement), KRAS WT; details: read-out: KRAS WT GNE IC50
T2 construct: made in house; host or cells: E. coli
T2 sequence (P01116 with tags, fused parts or gaps isoform P01116-2): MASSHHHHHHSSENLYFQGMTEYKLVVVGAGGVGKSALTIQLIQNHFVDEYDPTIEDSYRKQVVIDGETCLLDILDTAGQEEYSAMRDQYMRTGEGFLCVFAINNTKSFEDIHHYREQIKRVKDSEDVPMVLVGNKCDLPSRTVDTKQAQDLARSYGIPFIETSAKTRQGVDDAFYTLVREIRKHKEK
Protocol: as §1, §2, §3

[3] = target: T3, KRAS G12C (amino acids 1-169) (Homo sapiens, UniProt P01116, G12C); assay: SOS-catalyzed nucleotide exchange assay (Procedure B, BODIPY FL GDP displacement), KRAS G12C; details: read-out: KRAS G12C GNE IC50
T3 construct: made in house; host or cells: E. coli
T3 sequence (P01116 with tags, fused parts or gaps isoform P01116-2 G12C): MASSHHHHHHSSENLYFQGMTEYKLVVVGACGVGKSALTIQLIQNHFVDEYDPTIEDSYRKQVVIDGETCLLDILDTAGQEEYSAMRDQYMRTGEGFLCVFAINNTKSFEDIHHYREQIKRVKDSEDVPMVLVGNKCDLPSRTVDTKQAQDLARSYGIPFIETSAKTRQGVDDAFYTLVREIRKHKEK
Protocol: as §1, §2, §3

[4] = target: T4, KRAS G12D (amino acids 1-169) (Homo sapiens, UniProt P01116, G12D); assay: SOS-catalyzed nucleotide exchange assay (Procedure B, BODIPY FL GDP displacement), KRAS G12D; details: read-out: KRAS G12D GNE IC50
T4 construct: made in house; host or cells: E. coli
T4 sequence (P01116 with tags, fused parts or gaps isoform P01116-2 G12D): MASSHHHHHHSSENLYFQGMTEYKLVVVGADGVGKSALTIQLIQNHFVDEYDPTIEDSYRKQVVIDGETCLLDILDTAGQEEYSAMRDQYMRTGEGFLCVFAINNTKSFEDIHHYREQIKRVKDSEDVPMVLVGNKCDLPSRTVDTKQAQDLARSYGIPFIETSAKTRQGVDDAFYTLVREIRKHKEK
Protocol: as §1, §2, §3

T1 sequence (P01116 with tags, fused parts or gaps isoform P01116-2 G12V): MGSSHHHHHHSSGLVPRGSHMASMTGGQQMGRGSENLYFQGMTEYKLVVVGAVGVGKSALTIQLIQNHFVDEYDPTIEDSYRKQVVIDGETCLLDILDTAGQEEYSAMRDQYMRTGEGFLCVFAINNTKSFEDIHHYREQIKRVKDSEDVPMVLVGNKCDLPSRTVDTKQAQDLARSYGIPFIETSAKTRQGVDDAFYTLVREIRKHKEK

IC50 [1] [µM]	IC50 [2] [µM]	IC50 [3] [µM]	IC50 [4] [µM]	SMILES
0.123	0.15	0.177	0.0885	CC1Cc2cc3[nH]ncc3c(-c3nccc4c3sc3nc(OC[C@@]56CCCN5C[C@H](F)C6)nc(N5CCOC[C@@](C)(O)C5)c34)c2C1 (stereo partly drawn) [Ex-113, (6S)-4-(2-(((2R,7aS)-2-fluorotetrahydro-1H-pyrrolizin-7a(5H)-yl)methoxy)-8-(6-methyl-1,5,6,7-tetrahydrocyclopenta[f]in-dazol-4-yl)pyrido[4′,3′:4,5]thieno [2,3-d]pyrimidin-4-yl)-6-methy1-1,4-oxazepan-6-ol]
1.18	0.69	0.572	0.393	C#Cc1n[nH]c2cc(C)c(C(F)(F)F)c(-c3nccc4c3sc3nc(OC[C@@]56CCCN5C[C@H](F)C6)nc(N5CCOC[C@@](C)(O)C5)c34)c12 [Ex-151, (6S)-4-(8-(3-ethynyl-6-methyl-5-(trifluoromethyl)-1H-indazol-4-yl)-2-(((2R,7aS)-2-fluorotetrahydro-1H-pyrrolizin-7a(5H)-yl)methoxy)pyrido[4′,3′:4,5]thieno[2,3-d]pyrimidin-4-yl)-6-methyl-1,4-oxazepan-6-ol]
0.00952	0.0062	0.0198	0.00381	CC1c2c(cc3[nH]ncc3c2-c2nccc3c2sc2nc(OC[C@@]45CCCN4C[C@H](F)C5)nc(N4CCOC[C@@](C)(O)C4)c23)CC1(F)F (single isomer, unassigned) [Ex-107]
0.0158	0.0124	0.018	0.00665	C#CC1CCc2cc3[nH]ncc3c(-c3nccc4c3sc3nc(OC[C@@]56CCCN5C[C@H](F)C6)nc(N5CCOC[C@@](C)(O)C5)c34)c21 (stereo partly drawn) [Ex-166, (6S)-4-(8-(5-ethyn-yl-1,5,6,7-tetrahydro-cyclopenta[f]indazol-4-yl)-2-(((2R,7aS)-2-fluorotetrahydro-1H-pyrrolizin-7a(5H)-yl)methoxy)-pyrido[4′,3′:4,5]thieno[2,3-d]pyr-imidin-4-yl)-6-meth-yl-1,4-oxazepan-6-ol]
0.936	0.767	0.59	0.493	CO[C@]1(C)COCCN(c2nc(OC[C@@]34CCCN3C[C@H](F)C4)nc3sc4c(-c5c(C(F)(F)F)c(C)cc6[nH]ncc56)nccc4c23)C1 [Ex-203, (6S)-4-(2-(((2R,7aS)-2-fluorotetrahydro-1H-pyrrolizin-7a(5H)-yl)methoxy)-8-(6-methyl-5-(trifluoromethyl)-1H-indazol-4-yl)pyrido[4′,3′:4,5]thieno[2,3-d]pyrimidin-4-yl)-6-methoxy-6-methyl-1,4-oxazepane]

Continued, compound first:

SMILES	IC50 [1] [µM]	IC50 [2] [µM]	IC50 [3] [µM]	IC50 [4] [µM]
COCC1CCc2cc3[nH]ncc3c(-c3nccc4c3sc3nc(OC[C@@]56CCCN5C[C@H](F)C6)nc(N5CCOC[C@@](C)(O)C5)c34)c21 (single isomer, unassigned) [Ex-97]	0.00719	0.00837	0.00973	0.00316
CCC1CC(F)(F)c2cc3[nH]ncc3c(-c3nccc4c3sc3nc(OC[C@@]56CCCN5C[C@H](F)C6)nc(N5CCOC[C@@](C)(O)C5)c34)c21 (stereo partly drawn) [Ex-102, (6S)-4-(8-(5-ethyl-7,7-difluoro-1,5,6,7-tetrahydrocyclopenta[f]in-dazol-4-yl)-2-(((2R,7aS)-2-fluorotetrahydro-1H-pyrrolizin-7a(5H)-yl)methoxy)pyrido[4′,3′:4,5]thi-eno[2,3-d]pyrimidin-4-yl)-6-methyl-1,4-oxazepan-6-ol]	0.0104	0.00784	0.0103	0.00356
C[C@@]1(O)COCCN(c2nc(OC[C@@]34CCCN3C[C@H](F)C4)nc3sc4c(-c5c(-c6cnco6)c(Cl)cc6[nH]ncc56)nccc4c23)C1 [Ex-75, (6S)-4-(8-(6-chloro-5-(oxazol-5-yl)-1H-indazol-4-yl)-2-(((2R,7aS)-2-fluorotetrahydro-1H-pyrrolizin-7a(5H)-yl)methoxy)pyrido[4′,3′:4,5]thi-eno[2,3-d]pyrimidin-4-yl)-6-methyl-1,4-oxazepan-6-ol]	0.118	0.0608	0.056	0.0193
C[C@@]1(O)COCCN(c2nc(OC[C@@]34CCCN3C[C@H](F)C4)nc3sc4c(-c5c6c(cc7[nH]ncc57)CCC6C#N)nccc4c23)C1 (stereo partly drawn) [Ex-96, 4-(2-(((2R,7aS)-2-fluorotetrahydro-1H-pyrrolizin-7a(5H)-yl)methoxy)-4-((S)-6-hydroxy-6-methyl-1,4-oxazepan-4-yl)pyrido[4′,3′:4,5]thieno [2,3-d]pyrimidin-8-yl)-1,5,6,7-tetrahydrocyclopenta[f]in-dazole-5-carbonitrile]	0.105	0.125	0.193	0.0438
CC(=O)c1c(C(F)(F)F)cc2[nH]ncc2c1-c1nccc2c1sc1nc(OC[C@@]34CCCN3C[C@H](F)C4)nc(N3CCOC[C@@](C)(O)C3)c12 [Ex-59]	0.125	0.112	0.183	0.0719
C[C@@]1(O)COCCN(c2nc(OC[C@@]34CCCN3C[C@H](F)C4)nc3sc4c(-c5c(C6(F)CC6)c(C6CC6)cc6[nH]ncc56)nccc4c23)C1 [Ex-57, (6S)-4-(8-(6-cyclopropyl-5-(1-fluorocyclopropyl)-1H-indazol-4-yl)-2-(((2R,7aS)-2-fluorotetrahydro-1H-pyrrolizin-7a(5H)-yl)methoxy)pyrido[4′,3′: 4,5]thieno[2,3-d]pyrimidin-4-yl)-6-methyl-1,4-oxazepan-6-ol]	0.0413	0.0293	0.0625	0.0269
CC1(F)c2c(cc3[nH]ncc3c2-c2nccc3c2sc2nc(OC[C@@]45CCCN4C[C@H](F)C5)nc(N4CCOC[C@@](C)(O)C4)c23)CC1(F)F (single isomer, unassigned) [Ex-99]	0.0656	0.0565	0.0524	0.0273
